Measurements as given in the supplement of paper PMC5373622, “Screening for AMPA receptor auxiliary subunit specific modulators” (PLoS ONE, 2017).
± gives the standard deviation of the averaged measurements.

How the values were obtained:
GRIA2 [1] = assay: glutamate-evoked VSD slope, % of maximal glutamate response; higher = potentiation
GRIA2 [2] = assay: compound-evoked VSD slope (no glutamate), % of maximal glutamate slope; higher = agonist activity
Experimental: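 VSD concentration-response of known AMPAR ligands (fluorowillardiine, CX-546, cyclothiazide) on A2R-stg and A2R-C3 HEK293 cells, with compound added before EC50 glutamate. Per-well GluSlope and compound-window slope are given as % of the maximal-glutamate slope after vehicle subtraction.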

| Structure (SMILES) | glutamate-evoked VSD slope (GRIA2 [1]; 3.91 µM, clone: A2R-C3) [%] | glutamate-evoked VSD slope (GRIA2 [1]; 7.81 µM, clone: A2R-C3) [%] | glutamate-evoked VSD slope (GRIA2 [1]; 7.81 µM, clone: A2R-stg) [%] | glutamate-evoked VSD slope (GRIA2 [1]; 15.6 µM, clone: A2R-C3) [%] | glutamate-evoked VSD slope (GRIA2 [1]; 15.6 µM, clone: A2R-stg) [%] | glutamate-evoked VSD slope (GRIA2 [1]; 31.2 µM, clone: A2R-stg) [%] | glutamate-evoked VSD slope (GRIA2 [1]; 62.5 µM, clone: A2R-C3) [%] | glutamate-evoked VSD slope (GRIA2 [1]; 62.5 µM, clone: A2R-stg) [%] | glutamate-evoked VSD slope (GRIA2 [1]; 0.000125 M, clone: A2R-C3) [%] | glutamate-evoked VSD slope (GRIA2 [1]; 0.00025 M, clone: A2R-stg) [%] | glutamate-evoked VSD slope (GRIA2 [1]; 0.0005 M, clone: A2R-C3) [%] | glutamate-evoked VSD slope (GRIA2 [1]; 0.001 M, clone: A2R-C3) [%] | glutamate-evoked VSD slope (GRIA2 [1]; 0.001 M, clone: A2R-stg) [%] | compound-evoked VSD slope (GRIA2 [2]; 3.91 µM, clone: A2R-C3) [%] | compound-evoked VSD slope (GRIA2 [2]; 3.91 µM, clone: A2R-stg) [%] | compound-evoked VSD slope (GRIA2 [2]; 7.81 µM, clone: A2R-C3) [%] | compound-evoked VSD slope (GRIA2 [2]; 7.81 µM, clone: A2R-stg) [%] | compound-evoked VSD slope (GRIA2 [2]; 15.6 µM, clone: A2R-C3) [%] | compound-evoked VSD slope (GRIA2 [2]; 15.6 µM, clone: A2R-stg) [%] | compound-evoked VSD slope (GRIA2 [2]; 31.2 µM, clone: A2R-C3) [%] | compound-evoked VSD slope (GRIA2 [2]; 31.2 µM, clone: A2R-stg) [%] | compound-evoked VSD slope (GRIA2 [2]; 62.5 µM, clone: A2R-C3) [%] | compound-evoked VSD slope (GRIA2 [2]; 62.5 µM, clone: A2R-stg) [%] | compound-evoked VSD slope (GRIA2 [2]; 0.000125 M, clone: A2R-C3) [%] | compound-evoked VSD slope (GRIA2 [2]; 0.000125 M, clone: A2R-stg) [%] | compound-evoked VSD slope (GRIA2 [2]; 0.0005 M, clone: A2R-C3) [%] | compound-evoked VSD slope (GRIA2 [2]; 0.001 M, clone: A2R-C3) [%] | glutamate-evoked VSD slope (GRIA2 [1]; 1.95 µM, clone: A2R-C3) [%] | glutamate-evoked VSD slope (GRIA2 [1]; 1.95 µM, clone: A2R-stg) [%] | glutamate-evoked VSD slope (GRIA2 [1]; 3.91 µM, clone: A2R-stg) [%] | glutamate-evoked VSD slope (GRIA2 [1]; 31.2 µM, clone: A2R-C3) [%] | glutamate-evoked VSD slope (GRIA2 [1]; 0.000125 M, clone: A2R-stg) [%] | glutamate-evoked VSD slope (GRIA2 [1]; 0.0005 M, clone: A2R-stg) [%] | compound-evoked VSD slope (GRIA2 [2]; 1.95 µM, clone: A2R-C3) [%] | compound-evoked VSD slope (GRIA2 [2]; 1.95 µM, clone: A2R-stg) [%] | compound-evoked VSD slope (GRIA2 [2]; 0.00025 M, clone: A2R-C3) [%] | compound-evoked VSD slope (GRIA2 [2]; 0.00025 M, clone: A2R-stg) [%] | compound-evoked VSD slope (GRIA2 [2]; 0.0005 M, clone: A2R-stg) [%] |
| --- | --- | --- | --- | --- | --- | --- | --- | --- | --- | --- | --- | --- | --- | --- | --- | --- | --- | --- | --- | --- | --- | --- | --- | --- | --- | --- | --- | --- | --- | --- | --- | --- | --- | --- | --- | --- | --- | --- |
| O=C(c1ccc2c(c1)OCCO2)N1CCCCC1 [CX-546] | 12.5 ± 1.8 | 10.8 ± 3.4 | 20.7 ± 4.5 | 15.8 ± 6.4 | 24.6 ± 8 | 24.9 ± 3.2 | 23 ± 2 | 41.4 ± 4.9 | 25.6 ± 3.4 | 53.6 ± 3 | 40.3 ± 4.6 | 47.6 ± 10 | 54.1 ± 3.9 | 16.4 ± 1.7 | 26.8 ± 0.99 | 16.9 ± 0.81 | 27.4 ± 1 | 16.1 ± 4.3 | 26.7 ± 1.3 | 16.2 ± 3.6 | 26.7 ± 1.4 | 18.9 ± 2.4 | 28 ± 0.66 | 18.9 ± 0.99 | 29.5 ± 0.74 | 23.4 ± 0.91 | 29.1 ± 1.2 | – | – | – | – | – | – | – | – | – | – | – |
| NS(=O)(=O)c1cc2c(cc1Cl)NC(C1CC3C=CC1C3)NS2(=O)=O (configuration not stated) [cyclothiazide] | 26.7 ± 2.5 | 42.8 ± 3.3 | 52.6 ± 3.2 | 56.6 ± 5.3 | 60 ± 5.6 | 62.7 ± 9.1 | 70.9 ± 3.4 | 68.8 ± 4 | 63.8 ± 21 | 71.3 ± 3.3 | 69 ± 4.6 | – | – | 18.4 ± 1.1 | 26.6 ± 1.6 | 15.7 ± 1.1 | 27.1 ± 1.4 | 18 ± 1.3 | 27.3 ± 0.81 | 18.6 ± 0.53 | 27.7 ± 1.1 | 18.6 ± 1.4 | 28.8 ± 0.79 | 19.2 ± 1.4 | 29 ± 0.62 | 20.7 ± 1.4 | – | 23 ± 3.3 | 30.6 ± 5.6 | 37.5 ± 5.1 | 65.2 ± 3.7 | 68.4 ± 3.5 | 65.9 ± 8.1 | 16.2 ± 1.1 | 27.7 ± 0.73 | 20.3 ± 1.3 | 28.2 ± 1.1 | 27.5 ± 1.8 |
